Reference: patent publication US6521669B1, “Hydroxystilbene compounds for reducing/inhibiting protein glycation” (Societe L'Oreal S.A., priority 1999, dated 2003)

What was measured:
[1] = test system: human hair proteins (keratins); assay: Glycation of isolated human hair proteins (keratins) with ribose, glycation index (Experiment 2); assay type: biochemical; settings: 50 mM ribose, 50° C., 14 days
Procedure: The glycation reaction was modelled in vitro in a biochemical model using human hair proteins (keratins) as a support for glycation with ribose. The test system consisted of isolated hair, incubated in a phosphate buffer (0.2M, pH=7.4) containing 50 mM of ribose (origin: Sigma). […] The assembly was incubated at 50° C. in the absence of light and air for 14 days. Control samples, incubated in the presence and absence of ribose, were tested in parallel. After incubation for 14 days, the incubation media were removed and the hair was washed with a solution containing 10 μM of guanidium chloride and then in water of MilliQ grade in order to remove all trace of free ribose. The hair was then placed in a solution containing 50% (v/v) of ethanol and 50 mM of DTT for 15 minutes at 37° C. After washing, the samples were placed in a solution containing 10 mM of 5,5′-dithiobis-2-nitrobenzoic acid. The absorbance relating to the free […] residues was measured at 415 nm. The samples were then washed in a 50% (v/v) ethanol solution and then heated for 30 minutes at 100° C. in a 2M hydrazine monohydrate solution (pH 9.4). After addition of a 1 mg/ml solution of phenylhydrazine in a 40% (v/v) acetic acid solution, the samples were incubated for [lacuna] 60° C. and the absorbance relating to the glycated proteins was measured at 390 nm. For each sample, the glycation index was evaluated by the ratio between the absorbance at 390 nm and the absorbance at 415 nm. [formula] The groups of data (control group and treated groups) were processed by means of a variance analysis (ANOVA), followed by a Dunett test.

bovine serum albumin = bovine serum albumin (Bos taurus, UniProt P02769); assay: Glycation of bovine serum albumin with D-ribose, AGE fluorescence (Experiment 1); assay type: biochemical
bovine serum albumin, sequence (P02769 25-607): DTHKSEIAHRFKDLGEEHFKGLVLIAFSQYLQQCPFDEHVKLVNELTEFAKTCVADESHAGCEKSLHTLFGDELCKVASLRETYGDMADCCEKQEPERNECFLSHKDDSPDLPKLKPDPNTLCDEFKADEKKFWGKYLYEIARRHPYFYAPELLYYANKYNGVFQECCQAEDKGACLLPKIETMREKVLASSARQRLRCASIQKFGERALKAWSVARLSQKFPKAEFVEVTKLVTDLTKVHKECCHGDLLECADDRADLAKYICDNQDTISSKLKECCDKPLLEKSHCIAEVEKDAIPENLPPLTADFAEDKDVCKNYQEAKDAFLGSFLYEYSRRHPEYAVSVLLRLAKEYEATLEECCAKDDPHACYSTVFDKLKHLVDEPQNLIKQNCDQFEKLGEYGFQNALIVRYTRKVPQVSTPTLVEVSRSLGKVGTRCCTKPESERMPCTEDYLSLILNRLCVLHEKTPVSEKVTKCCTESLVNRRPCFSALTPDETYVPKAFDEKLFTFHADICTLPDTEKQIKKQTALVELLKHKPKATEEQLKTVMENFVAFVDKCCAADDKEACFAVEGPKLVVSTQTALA
Procedure: The glycation was evaluated by measuring the fluorescence of the AGEs at λem.=440 nm emitted by each sample after excitation at λex.=370 nm. The inhibition of glycation was visualized by the decrease in fluorescence compared with the sample treated with sugar alone.

In the case of `Oc1ccc(C=Cc2cc(O)cc(O)c2)cc1` [resveratrol, 3,5,4′-trihydroxystilbene], the “% Inhibition” value ([1]; resveratrol 10^−4 M) is reported as 80%, the “% Inhibition” value ([1]; resveratrol 10^−5 M) is reported as 51% and the “% Inhibition” value ([1]; resveratrol 10^−6 M) is reported as 59%. The “% Inhibition” value ([1]; resveratrol 10^−7 M) was 45%, the inhibition at 1 µM (bovine serum albumin) was 17% and the inhibition at 10 µM (bovine serum albumin) was 29.8%.
